Results: patent US11384096B2, “Substituted azetidine dihydrothienopyridines and their use as phosphodiesterase inhibitors” (UNION therapeutics A/S, priority 2017, dated 2022)

Key:
[1] = tested on: Human peripheral blood mononuclear cells (PBMC), TNF-α release; assay: TNF-α release in LPS-stimulated PBMC; type: cell-based; conditions: 30 minutes pre-incubation, stimulated for 18 hours with lipopolysaccharide, read-out: TNF-α IC50 range
Protocol: Human peripheral blood mononuclear cells (PBMC) were isolated from buffy coats. The blood is mixed with saline at a ratio of 1:1, and the PBMC were isolated using Lymphoprep Tubes™ (Nycomed, Norway). The PBMC were suspended in RPMI1640 with 0.5% human serum albumin, pen/strep and 2 mM L-glutamine at a concentration of 5×105 c/ml. The cells were pre-incubated for 30 minutes with the test compounds in 96 well tissue culture plates and stimulated for 18 hours with lipopolysaccharide […] (Sigma). TNF-α concentration in the supernatants was measured using homogeneous time-resolved fluorescence resonance (TR-FRET). The assay is quantified by measuring fluorescence at 665 nm (proportional to TNF-α concentration) and 620 nm (control).
Results were expressed as IC50 values calculated from inhibition curves using as positive controls the secretion in LPS stimulated wells and as negative controls the secretion in unstimulated cells.

[2] = molecular target: human PDE4D catalytic domain (Homo sapiens (Human), UniProt Q08499); assay: PDE4 Assay (TR-FRET, cAMP cleavage); type: biochemical; conditions: 50% inhibition of substrate cleavage, read-out: PDE4 IC50 range
Protocol: The human PDE4D catalytic domain (UniProt no. Q08499 [[…]]) was incubated with a mixture of non-labelled cAMP (cyclic adenosine monophosphate) and fluorescein amidite (FAM) conjugated cAMP and titrated test or reference compound. Following brief incubation the enzymatic reaction was stopped by addition of binding buffer containing nanoparticles with immobilized trivalent metal ions capable of binding 1) AMP phospho groups and 2) terbium (Tb) donor fluorophores. Subsequent excitation of the Tb donor triggers time-resolved FRET to adjacent FAM acceptor molecules resulting in light emission. In the presence of a PDE4 inhibitor, AMP generation was reduced resulting in a lower fluorescence signal. The cAMP phosphodiester is not bound by the detection system.
The results were calculated as the molar concentrations resulting in 50% inhibition of the substrate cleavage compared to controls samples, and are expressed as IC50 (nM).

human PDE4D catalytic domain, sequence (Q08499 380-740 limits assumed): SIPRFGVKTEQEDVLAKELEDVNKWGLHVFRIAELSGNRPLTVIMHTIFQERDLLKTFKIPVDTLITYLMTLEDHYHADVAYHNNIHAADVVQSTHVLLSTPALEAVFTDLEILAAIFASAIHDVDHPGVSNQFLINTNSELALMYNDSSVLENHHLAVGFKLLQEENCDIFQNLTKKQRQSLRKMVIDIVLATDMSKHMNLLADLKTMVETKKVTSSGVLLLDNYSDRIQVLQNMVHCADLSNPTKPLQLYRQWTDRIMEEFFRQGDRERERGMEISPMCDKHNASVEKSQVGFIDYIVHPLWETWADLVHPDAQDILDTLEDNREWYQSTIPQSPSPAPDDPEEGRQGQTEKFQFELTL

## [O-][S+]1CCc2nc(N3CC(c4ccc(F)cc4)C3)cc(NC3CCOCC3)c21 (stereo in doubt) [Example 1, (1R)-5-(3-(4-Fluorophenyl)azetidin-1-yl)-7-((tetrahydro-2H-pyran-4-yl)amino)-2,3-dihydrothieno[3,2-b]pyridine 1-oxide]
[1]
  IC50: < 0.01 µM
[2]
  IC50: 0.01 to 0.05 µM

## [O-][S+]1CCc2nc(N3CC(Oc4ccc(F)cc4)C3)cc(NC3CCOCC3)c21 (stereo in doubt) [Example 4, (1R)-5-(3-(4-Fluorophenoxy)azetidin-1-yl)-7-((tetrahydro-2H-pyran-4-yl)amino)-2,3-dihydrothieno[3,2-b]pyridine-1-oxide]
[1]
  IC50: 0.01 to 0.05 µM
[2]
  IC50: 0.01 to 0.05 µM

## COC(=O)N1CCC[C@@H](Nc2cc(N3CC(c4ccc(F)cc4)C3)nc3c2[S@+]([O-])CC3)C1 [Example 2, Methyl (3R)-3-[[(1R)-5-[3-(4-fluorophenyl)azetidin-1-yl]-1-oxido-2,3-dihydrothieno-[3,2-b]pyridin-7-yl]amino]piperidine-1-carboxylate]
[1]
  IC50: < 0.01 µM
[2]
  IC50: < 0.01 µM

## COC(=O)N1CCC[C@@H](Nc2cc(N3CC(c4ccccc4)C3)nc3c2[S@+]([O-])CC3)C1 [Example 3]
[1]
  IC50: < 0.01 µM
[2]
  IC50: < 0.01 µM

## COC(=O)N1CC[C@H](Nc2cc(N3CC(Oc4ccc(F)cc4)C3)nc3c2[S@+]([O-])CC3)C1 [Example 5, Methyl (3S)-3-[[(1R)-5-[3-(4-fluorophenoxy)azetidin-1-yl]-1-oxido-2,3-dihydrothieno[3,2-b]pyridine-7-yl]amino]pyrrolidine-1-carboxylate]
[1]
  IC50: 0.05 to 0.15 µM
[2]
  IC50: 0.05 to 0.15 µM

## CC(=O)N1CC[C@H](Nc2cc(N3CC(Oc4ccc(F)cc4)C3)nc3c2[S@+]([O-])CC3)C1 [Example 6, 1-[(3S)-3-[[(1R)-5-[3-(4-Fluorophenoxy)azetidin-1-yl]-1-oxido-2,3-dihydrothieno[3,2-b]pyridin-7-yl]amino]pyrrolidin-1-yl]ethanone]
[1]
  IC50: 0.01 to 0.05 µM
[2]
  IC50: < 0.01 µM

## [O-][S@+]1CCc2nc(N3CC(c4ccccc4)C3)cc(NC3CCOCC3)c21 [Example 7, (1R)-5-(3-Phenylazetidin-1-yl)-7-((tetrahydro-2H-pyran-4-yl)amino)-2,3-dihydrothieno[3,2-b]pyridine-1-oxide]
[1]
  IC50: 0.01 to 0.05 µM
[2]
  IC50: 0.01 to 0.05 µM
